Measurements from publication PMC7769561, “Antileishmanial activity of synthetic analogs of the naturally occurring quinolone alkaloid N-methyl-8-methoxyflindersin” (PLoS ONE, 2020).
≈ marks a conversion by molar mass, not a printed value. Where “and” joins values, the source holds several entries; their conditions need not be identical. Equal entries are not always repeated. Entries after “also recorded” stand apart in the source; their conditions may differ. Where two headings read alike, the source gives them in different places.

Legend:
[1] = tested on: hMDMs; experiment: Cytotoxicity in hMDMs (resazurin, 72 h); conditions: class by CC50
Protocol: (§1) We isolated hMDMs from buffy coats donated by the Institute of Local Science (Biotechnology and Health Innovation, Bogotá, Colombia) and spun them in Lymphoprep density gradient medium (Stem-Cell, Vancouver, Canada).
(§2) Next, we added 100 μL of this culture to each quinoline alkaloid–like compound at a concentration of 200, 20, 2, 0.2, and 0.02 μg/mL. […] Cells treated with amphotericin B (Sigma-Aldrich) were used as cell apoptosis (positive) controls. Results were expressed as the medial cytotoxic concentration (CC50) using Prism GraphPad software for nonlinear regression analysis (https://www.graphpad.com/scientific-software/prism/).
(§3) All assays required at least three independently duplicated experiments. We determined cytotoxicity against hMDMs and effectivity in L. (V) panamensis promastigotes according to each treatment’s mortality (compound and concentration) using Eq 1, where the control mean fluorescence intensity (MFI) was 100% viability: Validityinhibition(%)=100−[MIFexposedcells/MIFunexposedcells×100] (1)
(§4) We used GraphPad Prism nonlinear regression analysis to estimate the percentage mortality with regard to CC50 and EC50. […] The antileishmanial activity with regard to promastigotes was classified as active according to Eq 2: Active=EC50<[LC50/2], (2) where LC50 is the median lethal concentration. We also used GraphPad Prism nonlinear regression analysis to determine the intracellular antileishmanial activity (concentration vs. response), depending on the infection (number of infected cells) and parasite burden (number of parasites/cell) obtained in experimental conditions. Parasite inhibition was estimated using Eq 3, where the plate MFI is 100% parasites: Infectioninhibition(%)=100−[(MIFexposedparasites/MIFunexposedparasites×100)] (3)

[2] = tested on: L. (V.) panamensis promastigotes; experiment: Antileishmanial activity in L. (V.) panamensis promastigotes (resazurin, 72 h); type: cell-based, Leishmania (Viannia) panamensis
Protocol: They were treated with quinoline alkaloid–like compounds at a concentration of 100, 10, 1, 0.1, and 0.01 μg/mL for 72 h at 26°C. Next, we determined antileishmanial activity using the resazurin method (Sigma-Aldrich). Promastigotes treated with amphotericin B (Sigma-Aldrich) and pentamidine (Sanofi-Aventis, Gentilly, France) were used as parasite death (positive) controls. Results were expressed as the medial effective concentration (EC50) using Prism GraphPad software for nonlinear regression analysis (https://www.graphpad.com/scientific-software/prism/).
as §3, §4

[3] = tested on: L. (V.) panamensis intracellular amastigotes; experiment: Antileishmanial activity in L. (V.) panamensis intracellular amastigotes in hMDMs; type: cell-based, Leishmania (Viannia) panamensis; conditions: for SI (selectivity index = CC50/EC50): CC50 hMDMs / EC50 intracellular amastigotes; for EC50 Intracellular amastigotes: amastigotes in hMDMs, 72 h, ± SD
Protocol: Next, 100 μL of the suspension was cultured in 96-well plates and infected with L. (V.) panamensis promastigotes (HMOM/COL/87/UA-140) at a 10:1 parasite:cell ratio. We incubated the plates in a 5% CO2 atmosphere for 4 h at 35°C. After incubation, we removed noninternalized parasites by washing the cells with 0.9% NaCl saline solution (Baxter International, Deerfield, IL, USA). The cells were incubated again for 24 h and then treated with each quinoline alkaloid–like compound at a concentration of 100, 10, 1, 0.1, and 0.01 μg/mL in a 5% CO2 atmosphere for 72 h at 36°C. Next, we quantified the percentage of infected cells using fluorescence microscopy, as previously described by Pérez-Cordero in 2011 [23], and quantified the parasite load (amount of intracellular promastigotes and amastigotes per cell) using Giemsa staining and flow cytometry (Cytomics FC 500 MPL; Beckman Coulter, Brea, CA, USA). […] Results were expressed as EC50 using Prism GraphPad software’s probit nonlinear regression analysis (https://www.graphpad.com/scientific-software/prism/).
as §4
The percentage inhibition was used to calculate EC50 by nonlinear regression analysis (fluorescence microscopy), while the parasite burden was evaluated as the percentage of intracellular promastigotes and amastigotes in 100 infected cells (Giemsa staining). […] The selectivity index (SI) was estimated using the following formula: SI=CC50/EC50

[4] = Cytotoxicity in hMDMs (resazurin, 72 h); conditions: human
Protocol: as §1, §2, §3, §4

[5] = tested on: L. (V.) panamensis (MHOM/COL/87/UA140-EGFP); experiment: Therapeutic in vivo response in hamsters with experimental cutaneous leishmaniasis; parameters: species or system golden hamster (Mesocrisetus auratus)
Description: We used a golden hamster (Mesocrisetus auratus) model to evaluate the therapeutic response of synthetic alkaloid compounds 2 and 8. Male and female 6-week-old hamsters with a mean live weight (LW) of 120 g were infected by a dorsal intradermic injection of L. (V.) panamensis (MHOM/COL/87/UA140-EGFP) promastigotes. After the infected hamsters developed ulcers, they were randomly divided into three groups (n = 6 each) and treated topically with 1% ointment formulated from compounds 2 and 8.
(§5) The hamsters were monitored every 4 weeks to assess their appearance and weight and the lesion size. We categorized each compound’s effectiveness pre- and posttreatment as follows: (i) cure (complete disappearance of lesions), (ii) improvement (>10% reduced lesion area), and (iii) therapeutic failure or nonresponse (increased lesion size). The health status was monitored weekly for 3 months (12 weeks) posttreatment. After 3 months, the hamsters were euthanized in a CO2 chamber. We performed histopathological analysis after necropsy of the affected tissues and organs. In addition, we evaluated treatment cytotoxicity using LW monitoring and biochemical parameters (alanine aminotransferase [ALT], creatinine, and blood urea nitrogen [BUN]) pretreatment and 45 days after ointment administration.
The in vivo efficacy of compounds 1, 2, and 8 was expressed as a percentage cure, improvement, or nonresponse compared to the beginning of treatment. Efficacy was evaluated in vivo to compare percentages, the frequency of change, and treatment cytotoxicity in the hamster model. We used GraphPad Prism to determine ROS and NO production and the apoptotic cell percentage. One- or two-way analysis of variance (ANOVA; response–time kinetics) was used to compare treatments after confirming normal data distribution. P < 0.05 was considered statistically significant by comparing untreated cells (experiments on untreated hMDMs) with infected cells (experiments on untreated and treated hMDMs).

[6] = Treatment toxicity in hamsters (live weight, ALT, creatinine, BUN); type: in vivo, golden hamster (Mesocrisetus auratus)
Description: as §5

[7] = tested on: L. (V.) panamensis-infected hMDMs; experiment: ROS generation in L. (V.) panamensis-infected hMDMs (H2DCFDA flow cytometry); type: cell-based, human; conditions: compound at EC50, 4, 24, 48 and 72 h
Protocol: (§6) Next, we detached the cells with ethylenediaminetetraacetic acid (EDTA)/trypsin (Lonza, MD, USA) and 2',7'-dichlorodihydrofluorescein diacetate (H2DCFDA) tagged on a 5 μM fluorescent tube (Sigma-Aldrich) in order to identify intracellular ROS and/or 4-amino-5-methylamino-2′,7′-difluorofluorescein (DAF-FM; Sigma-Aldrich) for NO production in a 5% CO2 atmosphere for 45 min at 37°C. ROS and NO were quantified using flow cytometry (FACS Canto II) at a wavelength of 480 nm. Untreated cells were used as negative controls, while cells treated with 0.0001% H2O2 and 1 μM phorbol myristate acetate were used as ROS production (positive) controls. LPS (10 ng/mL) and phytohemagglutinin (PHA-M) (10 μL/mL) (Invitrogen) were used as positive controls for NO production.

[8] = tested on: L. (V.) panamensis-infected hMDMs; experiment: NO production in L. (V.) panamensis-infected hMDMs (DAF-FM flow cytometry); type: cell-based, human; conditions: compound at EC50, 24, 48 and 72 h
Protocol: as §6

[9] = tested on: L. (V.) panamensis-infected hMDMs; experiment: Transmission electron microscopy of L. (V.) panamensis-infected hMDMs; type: cell-based, human; conditions: compound at EC50, 72 h, TEM; on Cell membrane (ultrastructural modification grade): key: -: no alteration/absence; +: low alteration/low presence; ++: alteration/moderate presence; +++: serious disturbance/abundant presence; on LB (lipid bodies, grade): key: -: no alteration/absence; +: low alteration/low presence; ++: alteration/moderate presence; +++: serious disturbance/abundant presence; on Mitochondria (ultrastructural modification grade): key: -: no alteration/absence; +: low alteration/low presence; ++: alteration/moderate presence; +++: serious disturbance/abundant presence; on Nucleus (ultrastructural modification grade): key: -: no alteration/absence; +: low alteration/low presence; ++: alteration/moderate presence; +++: serious disturbance/abundant presence
Description: (§7) This procedure involved including fresh resin and 100–200-nm-wide ultrafine cuts observed by TEM (100X–10.000X) (HITACHI-HU-12; Hitachi, Tokyo, Japan).

[10] = tested on: L. (V.) panamensis intracellular amastigotes; experiment: Transmission electron microscopy of L. (V.) panamensis intracellular amastigotes in hMDMs; type: cell-based, Leishmania (Viannia) panamensis; parameters: Nucleus (ultrastructural alteration grade) / Vacuoles (ultrastructural alteration grade): key: -: no alteration/absence; +: low alteration/low presence; ++: alteration/moderate presence; +++: serious disturbance/abundant presence; conditions: compound at EC50, 72 h, TEM
Description: as §7

[11] = L. (V.) panamensis promastigotes, ± SD
[12] = L. (V.) panamensis promastigotes, ± SD, read-out: EC50 Intracellular promastigotes (converted)
[13] = hamsters, topical 1% ointment, 3 months posttreatment, n = 6

CCCc1c(CC)nc2ccccc2c1C(=O)O [Compound 3, carboxylic acid 2-ethyl-3-propyl-4-quinolinine]
Cytotoxicity class toward hMDMs [1]: moderate (moderate if CC50 from 100 to <200 μg/mL) | EC50 Intracellular promastigotes [2, 11]: 93.8 ± 6.3 µg/mL (≈ 386 µM) | EC50 [2, 12]: 496 µM | SI (selectivity index = CC50/EC50) [3]: 1.27 | EC50 Intracellular amastigotes [3]: 121.9 ± 6.2 µg/mL (≈ 501 µM)

COc1ccc2c(OC)c3ccoc3nc2c1OC [Compound 5, 4,7,8-trimetoxifure [2,3-b]-quinoline]
EC50 Intracellular promastigotes [2, 11]: 66.4 ± 13 µg/mL (≈ 256 µM) | EC50 [2, 12]: 256 µM | SI (selectivity index = CC50/EC50) [3]: 1.73 | EC50 Intracellular amastigotes [3]: 61.7 ± 1.1 µg/mL (≈ 238 µM)

COc1ccccc1-c1cc(C(=O)O)c2ccc(C)c(C)c2n1 [Compound 6, carboxylic acid-7,8-tetrahydro-quinoline]
EC50 Intracellular promastigotes [2, 11]: 61.3 ± 29.6 µg/mL (≈ 199 µM) | EC50 [2, 12]: 240 µM | SI (selectivity index = CC50/EC50) [3]: 1.89 | EC50 Intracellular amastigotes [3]: 46.5 ± 9.4 µg/mL (≈ 151 µM)

Cc1cc2ncccc2c2nc(N)n(C)c12 [Compound 7, 3,4-dimethyl-3H-imidazol [4.5f]-quinoline-2-amine]
EC50 Intracellular promastigotes [2, 11]: 26.5 ± 5.8 µg/mL (≈ 125 µM) | EC50 [2, 12]: 134 µM | SI (selectivity index = CC50/EC50) [3]: 1.70 | EC50 Intracellular amastigotes [3]: 55.8 ± 8.3 µg/mL (≈ 263 µM)

Nc1ccc2cccc(O)c2n1 [Compound 8, 2-amino-8-hydroxyquinoline]
CC50 at 72 h [4]: 5.5 µg/mL and 34 µM | Cytotoxicity class toward hMDMs [1]: high (high if CC50 < 100 μg/mL) | EC50 ([2]; read-out: EC50 Intracellular promastigotes): 1.6 µg/mL and 10 µM | Antileishmanial activity class ([3]; intracellular amastigotes, class by EC50): high (high if EC50 < 25 μg/mL) | Histopathologic analysis of the skin, cured hamsters ([5]; hamsters cured by treatment, hematoxylin/eosin): mixed leucocyte infiltratation | Lesion size during treatment ([5]; hamsters, topical 1% ointment): significantly reduced lesions | Improvement (reduced lesion size), percentage of the experimental group [5, 13]: 50% | No effect (poor response), percentage of the experimental group [5, 13]: 16.6% | Total cure (healing), percentage of the experimental group [5, 13]: 33.3% | Serum BUN level ([6]; compared to before treatment): significantly decreased | Cytotoxicity-related clinical manifestations ([6]; topical 1% ointment): No cytotoxicity-related clinical manifestations | Live weight posttreatment ([6]; topical 1% ointment): no evident changes during treatment | ROS generation compared to infected control cells [7]: no significant variations | NO production compared to untreated infected hMDMs [8]: do not modulate the induction of NO production | Cell membrane (ultrastructural modification grade) [9]: - | LB (lipid bodies, grade) [9]: - | Mitochondria (ultrastructural modification grade) [9]: + | Nucleus (description) [9]: Abnormal distribution of chromatin; also recorded: Nuclear membrane alteration | Nucleus (ultrastructural modification grade) [9]: +++ | PV (description) [9]: Individuals, attached to the parasite | PV (parasitophorous vacuoles, grade) [9]: + | Parasites (grade) [9]: + | Vacuoles (description) [9]: Double membrane (autophagic-digestives) | Vacuoles (ultrastructural modification grade) [9]: +++ | Cell membrane (ultrastructural alteration grade) [10]: - | Flagellum (flagellar/axonema pocket) (description) [10]: Membrane swelling | Flagellum (flagellar/axonema pocket) (grade) [10]: +++ | LB (lipid bodies, grade) [10]: - | Mitochondria/Kinetoplasts (description) [10]: Membrane swelling | Mitochondria/Kinetoplasts (ultrastructural alteration grade) [10]: +++ | Nucleus (description) [10]: Abnormal distribution of chromatine | Nucleus (ultrastructural alteration grade) [10]: ++ | PV (description) [10]: Individuals attached to the parasite | PV (parasitophorous vacuoles, grade) [10]: + | Vacuoles (description) [10]: Double membrane (autophagic-digestives) | Vacuoles (ultrastructural alteration grade) [10]: +++
